{"source": "patent US11229618B2", "about": "(Amarin Pharmaceuticals Ireland Limited, priority 2012, dated 2022)", "assay": "AAMI 6-week study: essential fatty acid parameters in RBC (gas chromatography)", "type": "in vivo, human", "details": "for AA RBC Mean change from Baseline / DHA RBC Mean change from Baseline / AA RBC 1 or 2 g versus 4 g LS Mean / DHA RBC 1 or 2 g versus 4 g LS Mean: AAMI; for AA RBC Mean change from Baseline / DHA RBC Mean change from Baseline: mean (SD); for DGLA 1 or 2 g versus 4 g, LS Mean / DPAn-3 1 or 2 g versus 4 g, LS Mean / EPA/AA 1 or 2 g versus 4 g, LS Mean / DGLA Mean change from Baseline, Mean (SD) / DPAn-3 Mean change from Baseline, Mean (SD) / EPA/AA Mean change from Baseline, Mean (SD) / DGLA Baseline Mean (SD) / DPAn-3 Baseline Mean (SD) / EPA/AA Baseline Mean (SD): RBC", "protocol": "A single-center, 6-week, double-blind, randomizes, parallel-group, placebo-controlled, dose-ranging pilot study was performed to evaluate the efficacy, tolerability, and safety of >96% ethyl-EPA in subjects with subjective and objective memory impairment according to generally accepted criteria for Age-Associated Memory Impairment (“AAMI”). The primary objective of the study was to determine the effect of >96% ethyl-EPA 1 g, 2 g, and 4 g daily, compared to placebo, on cognitive performance in subjects with AAMI.\nNinety-four subjects were randomized into one of six groups: 1 g E-EPA daily (n=23), 2 g E-EPA daily (n=24), 4 g E-EPA daily (n=24), 1 g placebo daily (n=7), 2 g placebo daily (n=8), and 4 g placebo daily (n=8). E-EPA was provided as 500 mg soft gel capsules containing>96% E-EPA and 0.2% dl-α-tocopherol as an antioxidant. Placebo capsules contained 467 mg of liquid paraffin and 0.2% dl-α-tocopherol. Ninety-one subjects completed the study. Two subjects in the 2 g E-EPA group and one subject in the 2 g placebo group discontinued the study.\nBlood samples (10 mL) were collected at Visit 1 (screening) and at Visits 4, 5 and 6. Analysis was performed by MSR Lipid Analysis, Scottish Crop Research Institute, Dundee, UK. The screening sample acted as baseline for the EFA measurements. Lipid was extracted from plasma, serum and RBC suspensions and converted into fatty acid methyl esters which were analyzed by gas chromatography to give fatty acid profiles as micrograms fatty acid per gram of sample (μgFA/g) and normalized area percent.\nRBC and plasma EFA data were collected at baseline, Day 14, 28 and 42 and summarized by visit for each treatment group. Change from baseline and percent change from baseline were also summarized. ANCOVA comparison of ethyl-EPA dose groups and ethyl-EPA versus placebo was performed.", "key": {"[1]": {"details": "Ethyl-EPA 1 g versus 4 g, p-value <0.001"}}}
{"smiles": "CC/C=C\\C/C=C\\C/C=C\\C/C=C\\C/C=C\\CCCC(=O)OCC", "note": "[IPE, all-cis eicosa-5,8,11,14,17-pentaenoic acid ethyl ester]", "values": [{"measurement": "AA RBC Mean change from Baseline", "setting": "1 g daily, Day 14", "result": "−8.1 (21.95) μg/g"}, {"measurement": "DHA RBC Mean change from Baseline", "setting": "1 g daily, Day 14", "result": "−4.6 (9.76) μg/g"}, {"measurement": "AA RBC Mean change from Baseline", "setting": "1 g daily, Day 28", "result": "−17.0 (20.69) μg/g"}, {"measurement": "DHA RBC Mean change from Baseline", "setting": "1 g daily, Day 28", "result": "−6.4 (11.57) μg/g"}, {"measurement": "AA RBC Mean change from Baseline", "setting": "1 g daily, Day 42", "result": "−14.2 (27.69) μg/g"}, {"measurement": "DHA RBC Mean change from Baseline", "setting": "1 g daily, Day 42", "result": "−7.0 (12.20) μg/g"}, {"measurement": "AA RBC 1 or 2 g versus 4 g LS Mean", "setting": "1 g versus 4 g", "result": 8.4, "unit": "µg/g"}, {"measurement": "DHA RBC 1 or 2 g versus 4 g LS Mean", "setting": "1 g versus 4 g", "result": 1.0, "unit": "µg/g"}, {"measurement": "AA RBC Mean change from Baseline", "setting": "2 g daily, Day 14", "result": "−3.1 (25.84) μg/g"}, {"measurement": "DHA RBC Mean change from Baseline", "setting": "2 g daily, Day 14", "result": "−2.0 (9.46) μg/g"}, {"measurement": "AA RBC Mean change from Baseline", "setting": "2 g daily, Day 28", "result": "−14.1 (26.89) μg/g"}, {"measurement": "DHA RBC Mean change from Baseline", "setting": "2 g daily, Day 28", "result": "−6.2 (9.34) μg/g"}, {"measurement": "AA RBC Mean change from Baseline", "setting": "2 g daily, Day 42", "result": "−18.8 (25.62) μg/g"}, {"measurement": "DHA RBC Mean change from Baseline", "setting": "2 g daily, Day 42", "result": "−6.3 (9.42) μg/g"}, {"measurement": "AA RBC 1 or 2 g versus 4 g LS Mean", "setting": "2 g versus 4 g", "result": 9.8, "unit": "µg/g"}, {"measurement": "DHA RBC 1 or 2 g versus 4 g LS Mean", "setting": "2 g versus 4 g", "result": 1.0, "unit": "µg/g"}, {"measurement": "AA RBC Mean change from Baseline", "setting": "4 g daily, Day 14", "result": "−15.7 (26.76) μg/g"}, {"measurement": "DHA RBC Mean change from Baseline", "setting": "4 g daily, Day 14", "result": "−6.9 (9.13) μg/g"}, {"measurement": "AA RBC Mean change from Baseline", "setting": "4 g daily, Day 28", "result": "−22.8 (29.56) μg/g"}, {"measurement": "DHA RBC Mean change from Baseline", "setting": "4 g daily, Day 28", "result": "−8.7 (11.63) μg/g"}, {"measurement": "AA RBC Mean change from Baseline", "setting": "4 g daily, Day 42", "result": "−34.4 (31.44) μg/g"}, {"measurement": "DHA RBC Mean change from Baseline", "setting": "4 g daily, Day 42", "result": "−13.8 (13.76) μg/g"}, {"measurement": "DGLA 1 or 2 g versus 4 g, LS Mean", "setting": "Ethyl-EPA 1 g versus 4 g, p-value 0.027", "result": 1.5, "unit": "µg/g"}, {"measurement": "DPAn-3 1 or 2 g versus 4 g, LS Mean", "setting": "[1]", "result": -6.2, "unit": "µg/g"}, {"measurement": "EPA/AA 1 or 2 g versus 4 g, LS Mean", "setting": "[1]", "result": "−0.18"}, {"measurement": "DGLA Mean change from Baseline, Mean (SD)", "setting": "Ethyl-EPA 1 g, Day 14", "result": "−2.7 (3.82) μg/g"}, {"measurement": "DPAn-3 Mean change from Baseline, Mean (SD)", "setting": "Ethyl-EPA 1 g, Day 14", "result": "0.9 (5.03) μg/g"}, {"measurement": "EPA/AA Mean change from Baseline, Mean (SD)", "setting": "Ethyl-EPA 1 g, Day 14", "result": "0.1 (0.04)"}, {"measurement": "DGLA Mean change from Baseline, Mean (SD)", "setting": "Ethyl-EPA 1 g, Day 28", "result": "−3.8 (3.31) μg/g"}, {"measurement": "DPAn-3 Mean change from Baseline, Mean (SD)", "setting": "Ethyl-EPA 1 g, Day 28", "result": "3.3 (5.42) μg/g"}, {"measurement": "EPA/AA Mean change from Baseline, Mean (SD)", "setting": "Ethyl-EPA 1 g, Day 28", "result": "0.1 (0.05)"}, {"measurement": "DGLA Mean change from Baseline, Mean (SD)", "setting": "Ethyl-EPA 1 g, Day 42", "result": "−3.5 (4.51) μg/g"}, {"measurement": "DPAn-3 Mean change from Baseline, Mean (SD)", "setting": "Ethyl-EPA 1 g, Day 42", "result": "6.5 (6.19) μg/g"}, {"measurement": "EPA/AA Mean change from Baseline, Mean (SD)", "setting": "Ethyl-EPA 1 g, Day 42", "result": "0.1 (0.06)"}, {"measurement": "DGLA Baseline Mean (SD)", "setting": "Ethyl-EPA 1 g", "result": "23.0 (5.19) μg/g"}, {"measurement": "DPAn-3 Baseline Mean (SD)", "setting": "Ethyl-EPA 1 g", "result": "34.1 (5.43) μg/g"}, {"measurement": "EPA/AA Baseline Mean (SD)", "setting": "Ethyl-EPA 1 g", "result": "0.1 (0.07)"}, {"measurement": "DPAn-3 1 or 2 g versus 4 g, LS Mean", "setting": "Ethyl-EPA 2 g versus 4 g, p-value 0.002", "result": -2.5, "unit": "µg/g"}, {"measurement": "DGLA 1 or 2 g versus 4 g, LS Mean", "setting": "Ethyl-EPA 2 g versus 4 g, p-value 0.032", "result": 1.5, "unit": "µg/g"}, {"measurement": "EPA/AA 1 or 2 g versus 4 g, LS Mean", "setting": "Ethyl-EPA 2 g versus 4 g, p-value <0.001", "result": "−0.11"}, {"measurement": "DGLA Mean change from Baseline, Mean (SD)", "setting": "Ethyl-EPA 2 g, Day 14", "result": "−2.6 (3.54) μg/g"}, {"measurement": "DPAn-3 Mean change from Baseline, Mean (SD)", "setting": "Ethyl-EPA 2 g, Day 14", "result": "5.6 (6.28) μg/g"}, {"measurement": "EPA/AA Mean change from Baseline, Mean (SD)", "setting": "Ethyl-EPA 2 g, Day 14", "result": "0.2 (0.04)"}, {"measurement": "DGLA Mean change from Baseline, Mean (SD)", "setting": "Ethyl-EPA 2 g, Day 28", "result": "−4.5 (3.58) μg/g"}, {"measurement": "DPAn-3 Mean change from Baseline, Mean (SD)", "setting": "Ethyl-EPA 2 g, Day 28", "result": "9.4 (6.74) μg/g"}, {"measurement": "EPA/AA Mean change from Baseline, Mean (SD)", "setting": "Ethyl-EPA 2 g, Day 28", "result": "0.02 (0.06)"}, {"measurement": "DGLA Mean change from Baseline, Mean (SD)", "setting": "Ethyl-EPA 2 g, Day 42", "result": "−5.3 (3.65) μg/g"}, {"measurement": "DPAn-3 Mean change from Baseline, Mean (SD)", "setting": "Ethyl-EPA 2 g, Day 42", "result": "13.2 (7.23) μg/g"}, {"measurement": "EPA/AA Mean change from Baseline, Mean (SD)", "setting": "Ethyl-EPA 2 g, Day 42", "result": "0.3 (0.06)"}, {"measurement": "DGLA Baseline Mean (SD)", "setting": "Ethyl-EPA 2 g", "result": "23.0 (5.76) μg/g"}, {"measurement": "DPAn-3 Baseline Mean (SD)", "setting": "Ethyl-EPA 2 g", "result": "33.2 (4.51) μg/g"}, {"measurement": "EPA/AA Baseline Mean (SD)", "setting": "Ethyl-EPA 2 g", "result": "0.1 (0.06)"}, {"measurement": "DGLA Mean change from Baseline, Mean (SD)", "setting": "Ethyl-EPA 4 g, Day 14", "result": "−5.3 (4.10) μg/g"}, {"measurement": "DPAn-3 Mean change from Baseline, Mean (SD)", "setting": "Ethyl-EPA 4 g, Day 14", "result": "5.4 (5.38) μg/g"}, {"measurement": "EPA/AA Mean change from Baseline, Mean (SD)", "setting": "Ethyl-EPA 4 g, Day 14", "result": "0.3 (0.07)"}, {"measurement": "DGLA Mean change from Baseline, Mean (SD)", "setting": "Ethyl-EPA 4 g, Day 28", "result": "−7.1 (4.63) μg/g"}, {"measurement": "DPAn-3 Mean change from Baseline, Mean (SD)", "setting": "Ethyl-EPA 4 g, Day 28", "result": "12.4 (6.98) μg/g"}, {"measurement": "EPA/AA Mean change from Baseline, Mean (SD)", "setting": "Ethyl-EPA 4 g, Day 28", "result": "0.4 (0.11)"}, {"measurement": "DGLA Mean change from Baseline, Mean (SD)", "setting": "Ethyl-EPA 4 g, Day 42", "result": "−8.0 (4.98) μg/g"}, {"measurement": "DPAn-3 Mean change from Baseline, Mean (SD)", "setting": "Ethyl-EPA 4 g, Day 42", "result": "16.2 (10.07) μg/g"}, {"measurement": "EPA/AA Mean change from Baseline, Mean (SD)", "setting": "Ethyl-EPA 4 g, Day 42", "result": "0.4 (0.14)"}, {"measurement": "DGLA Baseline Mean (SD)", "setting": "Ethyl-EPA 4 g", "result": "24.0 (5.77) μg/g"}, {"measurement": "DPAn-3 Baseline Mean (SD)", "setting": "Ethyl-EPA 4 g", "result": "34.5 (4.34) μg/g"}, {"measurement": "EPA/AA Baseline Mean (SD)", "setting": "Ethyl-EPA 4 g", "result": "0.1 (0.04)"}]}
